Measured values as given in PubChem BioAssay (NCI).
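Exposure lasted 48 hours, with cells grown in 96-well plates and compounds tested at five concentrations. TGI marks complete inhibition of growth.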

Key:
Experiment in all cases: DTP human tumour cell line panel, 48 h
SF-295 CNS = tested on: SF-295 CNS
SF-539 CNS = tested on: SF-539 CNS
RPMI-8226 leukemia = tested on: RPMI-8226 leukemia
UACC-257 melanoma = tested on: UACC-257 melanoma
HOP-62 NSCLC = tested on: HOP-62 NSCLC
TK-10 renal = tested on: TK-10 renal
SNB-19 CNS = tested on: SNB-19 CNS
DLD-1 colon = tested on: DLD-1 colon
SK-MEL-5 melanoma = tested on: SK-MEL-5 melanoma
OVCAR-4 ovarian = tested on: OVCAR-4 ovarian
SW-620 colon = tested on: SW-620 colon
CAKI-1 renal = tested on: CAKI-1 renal
LXFL 529 NSCLC = tested on: LXFL 529 NSCLC
SK-MEL-28 melanoma = tested on: SK-MEL-28 melanoma
MOLT-4 leukemia = tested on: MOLT-4 leukemia
CCRF-CEM leukemia = tested on: CCRF-CEM leukemia
KM12 colon = tested on: KM12 colon
OVCAR-8 ovarian = tested on: OVCAR-8 ovarian
NCI-H460 lung = tested on: NCI-H460 lung
A549 NSCLC = tested on: A549 NSCLC
HCT-15 colon = tested on: HCT-15 colon
IGROV1 ovarian = tested on: IGROV1 ovarian
UO-31 renal = tested on: UO-31 renal
HOP-92 NSCLC = tested on: HOP-92 NSCLC
UACC-62 melanoma = tested on: UACC-62 melanoma
NCI-H226 lung = tested on: NCI-H226 lung
SNB-75 CNS = tested on: SNB-75 CNS
ACHN renal = tested on: ACHN renal
MALME-3M melanoma = tested on: MALME-3M melanoma
COLO 205 colon = tested on: COLO 205 colon
U251 CNS = tested on: U251 CNS
786-0 renal = tested on: 786-0 renal
HL-60(TB) leukemia = tested on: HL-60(TB) leukemia
NCI-H522 lung = tested on: NCI-H522 lung
SF-268 CNS = tested on: SF-268 CNS
XF 498 CNS = tested on: XF 498 CNS
OVCAR-3 ovarian = tested on: OVCAR-3 ovarian
SR leukemia = tested on: SR leukemia
M19-MEL melanoma = tested on: M19-MEL melanoma
DMS 273 small cell lung = tested on: DMS 273 small cell lung
NCI-H23 lung = tested on: NCI-H23 lung
HCT-116 colon = tested on: HCT-116 colon
M14 melanoma = tested on: M14 melanoma
HT29 colon = tested on: HT29 colon
OVCAR-5 ovarian = tested on: OVCAR-5 ovarian
K-562 leukemia = tested on: K-562 leukemia
SK-MEL-2 melanoma = tested on: SK-MEL-2 melanoma
KM20L2 colon = tested on: KM20L2 colon
HCC-2998 colon = tested on: HCC-2998 colon
RXF 393 renal = tested on: RXF 393 renal
SN12C renal = tested on: SN12C renal
LOX IMVI melanoma = tested on: LOX IMVI melanoma
RXF-631 renal = tested on: RXF-631 renal
HOP-18 NSCLC = tested on: HOP-18 NSCLC
SK-OV-3 ovarian = tested on: SK-OV-3 ovarian
EKVX NSCLC = tested on: EKVX NSCLC
DMS 114 small cell lung = tested on: DMS 114 small cell lung

For `C#CC1(O)CCC2C3CCc4cc(Oc5nc(F)nc(-c6c7ccccc7c7sc8ccccc8n67)n5)ccc4C3CC[C@@]21C` (stereo partly drawn), the TGI (SF-295 CNS) was > 100 µM, the TGI (SF-539 CNS) was > 100 µM and the TGI (RPMI-8226 leukemia) was > 100 µM. For the same molecule, the TGI (UACC-257 melanoma) was > 100 µM, the TGI (HOP-62 NSCLC) was > 100 µM and the TGI (TK-10 renal) was > 100 µM. The TGI (SNB-19 CNS) was > 100 µM, the TGI (DLD-1 colon) was > 100 µM and the TGI (SK-MEL-5 melanoma) was > 100 µM. The TGI (OVCAR-4 ovarian) was > 100 µM, the TGI (SW-620 colon) was > 100 µM and the TGI (CAKI-1 renal) was > 100 µM. The TGI (LXFL 529 NSCLC) was > 100 µM, the TGI (SK-MEL-28 melanoma) was > 100 µM and the TGI (MOLT-4 leukemia) was > 100 µM. For the same molecule, the TGI (CCRF-CEM leukemia) was > 100 µM, the TGI (KM12 colon) was > 100 µM and the TGI (OVCAR-8 ovarian) was > 100 µM. For the same molecule, the TGI (NCI-H460 lung) was > 100 µM, the TGI (A549 NSCLC) was > 100 µM and the TGI (HCT-15 colon) was > 100 µM. For the same molecule, the TGI (IGROV1 ovarian) was > 100 µM, the TGI (UO-31 renal) was > 100 µM and the TGI (HOP-92 NSCLC) was > 100 µM. For the same molecule, the TGI (UACC-62 melanoma) was > 100 µM, the TGI (NCI-H226 lung) was > 100 µM and the TGI (SNB-75 CNS) was 89.3 µM. For the same molecule, the TGI (ACHN renal) was > 100 µM, the TGI (MALME-3M melanoma) was > 100 µM and the TGI (COLO 205 colon) was > 100 µM. For the same molecule, the TGI (U251 CNS) was > 100 µM, the TGI (786-0 renal) was > 100 µM and the TGI (HL-60(TB) leukemia) was > 100 µM. The TGI (NCI-H522 lung) was 43.7 µM, the TGI (SF-268 CNS) was > 100 µM and the TGI (XF 498 CNS) was > 100 µM. The TGI (OVCAR-3 ovarian) was > 100 µM, the TGI (SR leukemia) was > 100 µM and the TGI (M19-MEL melanoma) was > 100 µM. For the same molecule, the TGI (DMS 273 small cell lung) was > 100 µM, the TGI (NCI-H23 lung) was > 100 µM and the TGI (HCT-116 colon) was > 100 µM. For the same molecule, the TGI (M14 melanoma) was 98.3 µM, the TGI (HT29 colon) was > 100 µM and the TGI (OVCAR-5 ovarian) was > 100 µM. For the same molecule, the TGI (K-562 leukemia) was > 100 µM, the TGI (SK-MEL-2 melanoma) was > 100 µM and the TGI (KM20L2 colon) was > 100 µM. For the same molecule, the TGI (HCC-2998 colon) was > 100 µM.
For `CC1=CC(O)(c2ccc(-c3ccccc3Cl)cc2)OC1=O` (stereo not drawn), the TGI (SF-295 CNS) was > 100 µM, the TGI (RXF 393 renal) was > 100 µM and the TGI (SF-539 CNS) was > 100 µM. For the same molecule, the TGI (RPMI-8226 leukemia) was > 100 µM, the TGI (UACC-257 melanoma) was > 100 µM and the TGI (HOP-62 NSCLC) was > 100 µM. For the same molecule, the TGI (TK-10 renal) was > 100 µM, the TGI (SNB-19 CNS) was > 100 µM and the TGI (DLD-1 colon) was > 100 µM. For the same molecule, the TGI (SK-MEL-5 melanoma) was > 100 µM, the TGI (OVCAR-4 ovarian) was > 100 µM and the TGI (SW-620 colon) was > 100 µM. The TGI (CAKI-1 renal) was > 100 µM, the TGI (LXFL 529 NSCLC) was > 100 µM and the TGI (SK-MEL-28 melanoma) was > 100 µM. For the same molecule, the TGI (MOLT-4 leukemia) was > 100 µM, the TGI (SN12C renal) was > 100 µM and the TGI (LOX IMVI melanoma) was > 100 µM. For the same molecule, the TGI (CCRF-CEM leukemia) was > 100 µM, the TGI (KM12 colon) was > 100 µM and the TGI (OVCAR-8 ovarian) was > 100 µM. The TGI (NCI-H460 lung) was > 100 µM, the TGI (A549 NSCLC) was > 100 µM and the TGI (HCT-15 colon) was > 100 µM. The TGI (IGROV1 ovarian) was > 100 µM, the TGI (UO-31 renal) was > 100 µM and the TGI (HOP-92 NSCLC) was > 100 µM. For the same molecule, the TGI (UACC-62 melanoma) was > 100 µM, the TGI (SNB-75 CNS) was > 100 µM and the TGI (ACHN renal) was > 100 µM. For the same molecule, the TGI (RXF-631 renal) was > 100 µM, the TGI (MALME-3M melanoma) was > 100 µM and the TGI (COLO 205 colon) was > 100 µM. The TGI (U251 CNS) was > 100 µM, the TGI (786-0 renal) was > 100 µM and the TGI (HL-60(TB) leukemia) was > 100 µM. The TGI (NCI-H522 lung) was > 100 µM, the TGI (SF-268 CNS) was > 100 µM and the TGI (OVCAR-3 ovarian) was > 100 µM. The TGI (HOP-18 NSCLC) was > 100 µM, the TGI (M19-MEL melanoma) was > 100 µM and the TGI (SK-OV-3 ovarian) was > 100 µM. For the same molecule, the TGI (DMS 273 small cell lung) was > 100 µM, the TGI (NCI-H23 lung) was > 100 µM and the TGI (M14 melanoma) was > 100 µM. For the same molecule, the TGI (EKVX NSCLC) was > 100 µM, the TGI (HT29 colon) was > 100 µM and the TGI (OVCAR-5 ovarian) was > 100 µM. The TGI (K-562 leukemia) was > 100 µM, the TGI (SK-MEL-2 melanoma) was > 100 µM and the TGI (KM20L2 colon) was > 100 µM. The TGI (DMS 114 small cell lung) was > 100 µM and the TGI (HCC-2998 colon) was > 100 µM.
`Cc1ccc(NC(=O)c2cc3cc(N=Nc4ccccc4C(=O)O)ccc3oc2=O)cc1` was tested, and the TGI (SF-295 CNS) was > 100 µM, the TGI (RXF 393 renal) was > 100 µM and the TGI (SF-539 CNS) was 98.5 µM. For the same molecule, the TGI (RPMI-8226 leukemia) was > 100 µM, the TGI (UACC-257 melanoma) was 59.4 µM and the TGI (HOP-62 NSCLC) was > 100 µM. For the same molecule, the TGI (TK-10 renal) was > 100 µM, the TGI (SNB-19 CNS) was > 100 µM and the TGI (DLD-1 colon) was > 100 µM. For the same molecule, the TGI (SK-MEL-5 melanoma) was > 100 µM, the TGI (SW-620 colon) was > 100 µM and the TGI (SK-MEL-28 melanoma) was > 100 µM. For the same molecule, the TGI (MOLT-4 leukemia) was > 100 µM, the TGI (SN12C renal) was > 100 µM and the TGI (LOX IMVI melanoma) was > 100 µM. The TGI (CCRF-CEM leukemia) was > 100 µM, the TGI (KM12 colon) was > 100 µM and the TGI (OVCAR-8 ovarian) was > 100 µM. The TGI (NCI-H460 lung) was > 100 µM, the TGI (A549 NSCLC) was > 100 µM and the TGI (HCT-15 colon) was > 100 µM. For the same molecule, the TGI (IGROV1 ovarian) was > 100 µM, the TGI (UO-31 renal) was > 100 µM and the TGI (UACC-62 melanoma) was 85 µM. For the same molecule, the TGI (NCI-H226 lung) was > 100 µM, the TGI (SNB-75 CNS) was > 100 µM and the TGI (ACHN renal) was > 100 µM. For the same molecule, the TGI (MALME-3M melanoma) was > 100 µM, the TGI (COLO 205 colon) was > 100 µM and the TGI (U251 CNS) was > 100 µM. For the same molecule, the TGI (786-0 renal) was > 100 µM, the TGI (HL-60(TB) leukemia) was 69.4 µM and the TGI (NCI-H522 lung) was > 100 µM. The TGI (XF 498 CNS) was 85.8 µM, the TGI (OVCAR-3 ovarian) was 74.2 µM and the TGI (HOP-18 NSCLC) was > 100 µM. For the same molecule, the TGI (SK-OV-3 ovarian) was > 100 µM, the TGI (DMS 273 small cell lung) was > 100 µM and the TGI (NCI-H23 lung) was > 100 µM. The TGI (HCT-116 colon) was > 100 µM, the TGI (M14 melanoma) was > 100 µM and the TGI (EKVX NSCLC) was > 100 µM. For the same molecule, the TGI (HT29 colon) was > 100 µM, the TGI (K-562 leukemia) was > 100 µM and the TGI (KM20L2 colon) was > 100 µM. For the same molecule, the TGI (DMS 114 small cell lung) was 94.3 µM.
